1 compound from ChEMBL document CHEMBL5316291 (J Med Chem, 2023) can be followed below.

The source made the active and inactive calls. No cut-off for these calls is given here.

Data set [1] in a line: Clearance in ICR mouse at 10 mg/kg, po measured upto 24 hrs by LC-MS/MS analysis. The format is ADME, organism-based. Conditions: in vivo.
The test system of data set [2] is CT26. Kind of data set: Antitumor activity against mouse CT26 cells implanted in BALB/c mouse assessed as increase in infiltration of CD3 positive CD4 positive T lymphocytes in tumors at 50 mg/kg, po measured after 14 days by flow cytometry (reference value: 7.95%). The class given is functional. Conditions: time 14 day. (In general: A flow cytometer gives signals particle by particle.)

Data set [3] can be described thus: AUC(0 to infinity) in ICR mouse at 1 mg/kg, iv measured upto 24 hrs by LC-MS/MS analysis. The format is ADME, organism-based. Set-up: time < 24 hrs, dose 1 mg/kg, route iv. The conditions noted are these: in vivo.
Data set [4] in a line: Toxicity in BALB/c mouse implanted with mouse CT26 cells assessed as change in body weight at 1000 mg/kg, po measured upto 7 days. The conditions noted are these: in vivo, 168 h, time < 7 day. The format is organism-based.
A short description of data set [5]: Apparent volume of distribution in ICR mouse at 1 mg/kg, iv measured upto 24 hrs by LC-MS/MS analysis. The class given is ADME, organism-based. Conditions: in vivo, read-out: Vz.
In data set [6] the target is T1, Poly [ADP-ribose] polymerase tankyrase-1 (Homo sapiens, UniProt O95271).
T1 sequence (O95271 whole entry): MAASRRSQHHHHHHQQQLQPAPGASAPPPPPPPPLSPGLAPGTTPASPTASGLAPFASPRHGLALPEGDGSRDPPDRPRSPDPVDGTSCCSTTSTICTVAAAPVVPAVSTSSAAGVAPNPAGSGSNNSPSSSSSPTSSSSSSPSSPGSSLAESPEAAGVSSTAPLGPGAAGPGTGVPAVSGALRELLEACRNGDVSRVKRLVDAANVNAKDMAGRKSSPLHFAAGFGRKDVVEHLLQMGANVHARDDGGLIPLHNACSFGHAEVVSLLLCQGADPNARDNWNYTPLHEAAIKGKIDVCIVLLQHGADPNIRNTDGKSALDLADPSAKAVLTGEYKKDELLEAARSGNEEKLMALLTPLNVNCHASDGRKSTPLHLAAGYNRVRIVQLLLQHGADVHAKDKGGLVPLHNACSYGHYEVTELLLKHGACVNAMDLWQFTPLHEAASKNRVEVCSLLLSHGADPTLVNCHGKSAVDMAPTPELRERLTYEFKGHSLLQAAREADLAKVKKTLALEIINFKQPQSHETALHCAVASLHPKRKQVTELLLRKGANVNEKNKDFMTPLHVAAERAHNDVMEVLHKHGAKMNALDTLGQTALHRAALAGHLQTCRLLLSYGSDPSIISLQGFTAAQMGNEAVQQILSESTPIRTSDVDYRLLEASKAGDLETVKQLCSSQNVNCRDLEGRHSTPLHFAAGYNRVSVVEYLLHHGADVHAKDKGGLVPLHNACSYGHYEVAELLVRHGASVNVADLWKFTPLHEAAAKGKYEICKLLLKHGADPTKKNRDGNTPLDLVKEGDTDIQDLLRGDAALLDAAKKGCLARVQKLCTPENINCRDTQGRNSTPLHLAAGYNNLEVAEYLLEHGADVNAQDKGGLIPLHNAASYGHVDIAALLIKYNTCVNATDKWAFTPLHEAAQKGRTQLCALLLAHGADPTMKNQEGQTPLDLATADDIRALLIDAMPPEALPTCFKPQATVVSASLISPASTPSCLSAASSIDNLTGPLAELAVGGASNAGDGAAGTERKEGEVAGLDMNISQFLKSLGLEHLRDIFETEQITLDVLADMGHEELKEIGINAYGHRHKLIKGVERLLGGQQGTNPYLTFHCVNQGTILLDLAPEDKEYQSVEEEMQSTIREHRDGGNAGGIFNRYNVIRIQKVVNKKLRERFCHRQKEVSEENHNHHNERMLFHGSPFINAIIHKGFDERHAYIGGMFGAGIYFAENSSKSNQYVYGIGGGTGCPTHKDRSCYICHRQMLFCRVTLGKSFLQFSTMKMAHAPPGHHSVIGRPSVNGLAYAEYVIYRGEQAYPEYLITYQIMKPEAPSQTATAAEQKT
The experiment in a line: Inhibition of human recombinant N-terminal GST-tagged PARP5a (1001 to 1327 end residues) expressed in baculovirus infected Sf9 cells expression system incubated for 1 hr by ELISA assay. Background: In an ELISA, binding on a coated surface is turned into a signal by an enzyme label.

Data set [7] in a line: MRT(0 to infinity) in ICR mouse at 10 mg/kg, po measured upto 24 hrs by LC-MS/MS analysis. The format is ADME, organism-based. Conditions: in vivo.
Data set [8] is described as follows: Half life in ICR mouse at 10 mg/kg, po measured upto 24 hrs by LC-MS/MS analysis. The class given is ADME, organism-based. The conditions noted are these: in vivo.
In data set [9] the target is T2, Protein mono-ADP-ribosyltransferase TIPARP (Mus musculus) (UniProt Q8C1B2).
T2 sequence (whole entry): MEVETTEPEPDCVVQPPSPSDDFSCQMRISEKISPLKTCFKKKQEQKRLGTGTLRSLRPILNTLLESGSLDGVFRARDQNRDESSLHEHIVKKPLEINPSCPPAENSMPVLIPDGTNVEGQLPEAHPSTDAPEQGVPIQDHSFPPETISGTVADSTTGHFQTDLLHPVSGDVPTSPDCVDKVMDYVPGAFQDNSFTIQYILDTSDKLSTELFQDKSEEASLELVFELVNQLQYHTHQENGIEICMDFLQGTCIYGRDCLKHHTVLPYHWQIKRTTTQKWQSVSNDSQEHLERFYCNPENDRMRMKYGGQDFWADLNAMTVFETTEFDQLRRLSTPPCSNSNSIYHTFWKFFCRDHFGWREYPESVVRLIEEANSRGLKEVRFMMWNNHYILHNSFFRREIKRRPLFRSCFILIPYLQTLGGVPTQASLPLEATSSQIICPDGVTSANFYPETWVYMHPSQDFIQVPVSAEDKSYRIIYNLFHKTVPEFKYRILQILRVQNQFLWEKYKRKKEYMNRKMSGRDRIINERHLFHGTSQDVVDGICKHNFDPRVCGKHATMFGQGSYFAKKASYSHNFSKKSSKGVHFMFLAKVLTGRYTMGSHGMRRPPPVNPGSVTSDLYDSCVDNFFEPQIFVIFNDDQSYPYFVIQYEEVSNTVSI
The experiment in a line: Inhibition of PARP7 in mouse CT26 cells assessed as increase in STAT1 phosphorylation incubated for 6 hrs in presence of DMXAA by Western blotting analysis. The conditions noted are these: dose 0.44-4 µM. The class given is cell-based. On the technique in general: A western blot detects proteins with antibodies after separation by electrophoresis.

Data set [10] deals with CT26. The experiment in a line: Antitumor activity against mouse CT26 cells implanted in BALB/c mouse assessed as nuclear chromatin margination at 25 to 100 mg/kg, po bid measured for 14 days by hematoxylin and eosin staining based fluorescence microscopic analysis. Conditions: dose 25-100 mg/kg, time 14.0 day. The format is functional, organism-based.
Data set [11] concerns CT26. The experiment in a line: Antitumor activity against mouse CT26 cells implanted in po dosed BALB/c mouse assessed as increase in IFN-beta levels measured after 14 days by RT-qPCR analysis. The class given is functional, organism-based. Conditions: dose 25-100 mg/kg, time 14.0 day.
Data set [12] in a line: Tmax in ICR mouse at 1 mg/kg, iv measured upto 24 hrs by LC-MS/MS analysis. The class given is ADME, organism-based. Conditions: in vivo.
Data set [13] addresses Poly [ADP-ribose] polymerase 2 (Homo sapiens, UniProt Q9UGN5). The experiment in a line: Inhibition of human recombinant N-terminal GST-tagged PARP2 (2 to 583 residues) expressed in baculovirus infected Sf9 cells expression system incubated for 1 hr by ELISA assay.

Chain of Poly [ADP-ribose] polymerase 2 (Q9UGN5 whole entry, the tested form may be a part): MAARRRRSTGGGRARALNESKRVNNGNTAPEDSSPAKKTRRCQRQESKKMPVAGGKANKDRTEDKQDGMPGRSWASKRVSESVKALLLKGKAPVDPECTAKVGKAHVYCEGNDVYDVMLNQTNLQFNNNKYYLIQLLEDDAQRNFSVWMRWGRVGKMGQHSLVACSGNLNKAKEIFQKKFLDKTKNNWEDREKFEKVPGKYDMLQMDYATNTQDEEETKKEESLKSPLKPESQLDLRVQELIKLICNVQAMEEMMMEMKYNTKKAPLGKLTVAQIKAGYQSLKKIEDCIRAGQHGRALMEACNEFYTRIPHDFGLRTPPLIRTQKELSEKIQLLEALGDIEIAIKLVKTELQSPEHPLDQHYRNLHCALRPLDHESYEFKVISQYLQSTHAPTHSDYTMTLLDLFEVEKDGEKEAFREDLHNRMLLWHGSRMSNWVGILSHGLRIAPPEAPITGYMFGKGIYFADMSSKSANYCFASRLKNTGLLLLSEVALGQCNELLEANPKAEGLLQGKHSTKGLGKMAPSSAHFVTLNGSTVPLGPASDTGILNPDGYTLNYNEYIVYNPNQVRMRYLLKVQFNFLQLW

As for `C[C@@H](CN1CC(C(=O)N2CCN(c3ncc(C(F)(F)F)cn3)CC2)C1)Nc1cn[nH]c(=O)c1C(F)(F)F`, the CL/F in data set [1] is 30.3 mL/min/kg. Besides, the values for the Activity (in the data set on CT26 [2]; in [4]; in the data set on CT26 [11]) were 63.1%, “Non-Toxic” and “Dose-Dependent Effect”, respectively. In data set [3], the exposure (AUC) stood at 591.1 ng·h/mL. In addition, the Vd in data set [5] worked out at 3.66 L/kg. The half-inhibitory concentration (IC50) in data set [6] was 174 nM; in data set [13], 546 nM. In addition, the MRT inf in data set [7] was 1.97 h. In [8], the t1/2 is 1.74 h. Moreover, the inhibition result in data set [9] is “Dose-Dependent Effect”. Besides, the outcome in the data set with CT26 [10] was Active. Further, the time of peak concentration (Tmax) in data set [12] came to 4.8 min.

By CL/F is commonly meant the apparent clearance, not corrected for the fraction that reaches the circulation. The term AUC denotes concentration integrated over time. Read a high AUC as more exposure. By IC50 is commonly meant the concentration at which inhibition is half-maximal. In general, MRT inf refers to the average time that molecules of a dose stay in the body. As usually defined, the Tmax is the time at which the peak concentration occurs.
